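Exposure lasted 48 hours, with cells grown in 96-well plates and compounds tested at five concentrations. TGI is the concentration that stops growth completely.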
Assays:
Test in all cases: NCI anticancer screen, dose series, 48 h
BT-549 breast = test system: BT-549 breast
CCRF-CEM leukemia = test system: CCRF-CEM leukemia
DU-145 prostate = test system: DU-145 prostate
HL-60(TB) leukemia = test system: HL-60(TB) leukemia
HOP-92 NSCLC = test system: HOP-92 NSCLC
HS 578T breast = test system: HS 578T breast
HT29 colon = test system: HT29 colon
MDA-MB-231 breast = test system: MDA-MB-231 breast
MDA-N = test system: MDA-N
NCI-H23 lung = test system: NCI-H23 lung
PC-3 prostate = test system: PC-3 prostate
RXF 393 renal = test system: RXF 393 renal
SF-295 CNS = test system: SF-295 CNS
SR leukemia = test system: SR leukemia
T-47D breast = test system: T-47D breast
U251 CNS = test system: U251 CNS
UACC-257 melanoma = test system: UACC-257 melanoma
UACC-62 melanoma = test system: UACC-62 melanoma
MOLT-4 leukemia = test system: MOLT-4 leukemia

COCC12CCC(OC)C34C5CC6(O)C(OC)C=C(C5C6OC(=O)c5ccccc5)C(C(OC)C13)C4N(C)C2 (centres undefined)
TGI (BT-549 breast): > 100 µM | TGI (CCRF-CEM leukemia): > 100 µM | TGI (DU-145 prostate): > 100 µM | TGI (HL-60(TB) leukemia): > 100 µM | TGI (HOP-92 NSCLC): > 100 µM | TGI (HS 578T breast): > 100 µM | TGI (HT29 colon): > 100 µM | TGI (MDA-MB-231 breast): > 100 µM | TGI (MDA-N): > 100 µM | TGI (NCI-H23 lung): > 100 µM | TGI (PC-3 prostate): > 100 µM | TGI (RXF 393 renal): > 100 µM | TGI (SF-295 CNS): > 100 µM | TGI (SR leukemia): > 100 µM | TGI (T-47D breast): > 100 µM | TGI (U251 CNS): > 100 µM | TGI (UACC-257 melanoma): > 100 µM | TGI (UACC-62 melanoma): > 100 µM

COc1ccccc1N1C(=O)CSC1c1cc(OC)c(OC)c(OC)c1 (centres undefined)
TGI (BT-549 breast): 98.3 µM | TGI (CCRF-CEM leukemia): 76.6 µM | TGI (DU-145 prostate): > 100 µM | TGI (HL-60(TB) leukemia): 97.7 µM | TGI (HOP-92 NSCLC): > 100 µM | TGI (HS 578T breast): > 100 µM | TGI (HT29 colon): > 100 µM | TGI (MDA-MB-231 breast): > 100 µM | TGI (MDA-N): 44.7 µM | TGI (MOLT-4 leukemia): > 100 µM | TGI (NCI-H23 lung): > 100 µM | TGI (PC-3 prostate): > 100 µM | TGI (RXF 393 renal): > 100 µM | TGI (SF-295 CNS): > 100 µM | TGI (SR leukemia): > 100 µM | TGI (T-47D breast): > 38.3 µM | TGI (U251 CNS): > 100 µM | TGI (UACC-257 melanoma): > 100 µM | TGI (UACC-62 melanoma): > 66.1 µM

O=C(NCCc1ccccc1)c1cc(/C=C/c2cc(O)ccc2O)ccc1O
TGI (BT-549 breast): 3.7 µM | TGI (CCRF-CEM leukemia): > 40.3 µM | TGI (DU-145 prostate): 28.1 µM | TGI (HL-60(TB) leukemia): 9.65 µM | TGI (HOP-92 NSCLC): 4.35 µM | TGI (HS 578T breast): > 40.4 µM | TGI (HT29 colon): > 50 µM | TGI (MDA-MB-231 breast): 12.9 µM | TGI (MDA-N): 9.81 µM | TGI (MOLT-4 leukemia): 7.5 µM | TGI (NCI-H23 lung): 17.7 µM | TGI (PC-3 prostate): 11.4 µM | TGI (RXF 393 renal): 2.93 µM | TGI (SF-295 CNS): 35.2 µM | TGI (SR leukemia): 8.58 µM | TGI (T-47D breast): 3.86 µM | TGI (U251 CNS): 5.28 µM | TGI (UACC-257 melanoma): 8.57 µM | TGI (UACC-62 melanoma): 5.03 µM

CSC1=C(C#N)C(=O)N(c2ccc(C)cc2)C(=O)C1C#N (centres undefined)
TGI (BT-549 breast): > 100 µM | TGI (CCRF-CEM leukemia): > 100 µM | TGI (DU-145 prostate): > 100 µM | TGI (HL-60(TB) leukemia): > 100 µM | TGI (HOP-92 NSCLC): 82 µM | TGI (HS 578T breast): > 100 µM | TGI (HT29 colon): > 100 µM | TGI (MDA-MB-231 breast): > 100 µM | TGI (MDA-N): > 100 µM | TGI (MOLT-4 leukemia): > 100 µM | TGI (NCI-H23 lung): > 100 µM | TGI (PC-3 prostate): > 100 µM | TGI (RXF 393 renal): > 100 µM | TGI (SF-295 CNS): > 100 µM | TGI (SR leukemia): > 100 µM | TGI (T-47D breast): > 100 µM | TGI (U251 CNS): > 100 µM | TGI (UACC-257 melanoma): > 100 µM | TGI (UACC-62 melanoma): > 100 µM

CCCCCCCC(CC(=O)NC(CO)C(=O)NC(CO)CC(C)C)OC(=O)CC(CCCCCCC)OC(=O)CC(CCCCCCC)OC1OC(C)C(O)C(OC2OC(C)C(O)C(O)C2O)C1O (centres undefined)
TGI (BT-549 breast): 28.8 µM | TGI (CCRF-CEM leukemia): 15 µM | TGI (DU-145 prostate): 25.3 µM | TGI (HL-60(TB) leukemia): 10.5 µM | TGI (HOP-92 NSCLC): 24.8 µM | TGI (HS 578T breast): 22.7 µM | TGI (HT29 colon): 21.8 µM | TGI (MDA-MB-231 breast): 26.6 µM | TGI (MDA-N): 20.5 µM | TGI (MOLT-4 leukemia): 28.2 µM | TGI (NCI-H23 lung): 30 µM | TGI (PC-3 prostate): 25.3 µM | TGI (RXF 393 renal): 31.2 µM | TGI (SF-295 CNS): 27.1 µM | TGI (SR leukemia): 15.9 µM | TGI (T-47D breast): 26.6 µM | TGI (U251 CNS): 24.7 µM | TGI (UACC-257 melanoma): 26.6 µM | TGI (UACC-62 melanoma): 27.9 µM

O=C(c1ccccc1)C(Nc1ccc2ccccc2c1)c1ccccc1 (centres undefined)
TGI (BT-549 breast): > 100 µM | TGI (CCRF-CEM leukemia): 51.2 µM | TGI (DU-145 prostate): > 100 µM | TGI (HL-60(TB) leukemia): 36.4 µM | TGI (HOP-92 NSCLC): > 100 µM | TGI (HS 578T breast): > 100 µM | TGI (HT29 colon): > 100 µM | TGI (MDA-MB-231 breast): > 100 µM | TGI (MDA-N): > 100 µM | TGI (MOLT-4 leukemia): > 75.6 µM | TGI (NCI-H23 lung): > 100 µM | TGI (PC-3 prostate): 98.7 µM | TGI (RXF 393 renal): > 100 µM | TGI (SF-295 CNS): > 100 µM | TGI (SR leukemia): > 71.8 µM | TGI (T-47D breast): > 100 µM | TGI (U251 CNS): > 100 µM | TGI (UACC-257 melanoma): 48.2 µM | TGI (UACC-62 melanoma): > 100 µM

CN1CC=C(c2cccn2C)CC1
TGI (BT-549 breast): > 100 µM | TGI (CCRF-CEM leukemia): > 100 µM | TGI (DU-145 prostate): > 100 µM | TGI (HL-60(TB) leukemia): > 100 µM | TGI (HS 578T breast): > 100 µM | TGI (HT29 colon): > 100 µM | TGI (MDA-MB-231 breast): > 100 µM | TGI (MDA-N): > 100 µM | TGI (MOLT-4 leukemia): > 100 µM | TGI (NCI-H23 lung): > 100 µM | TGI (PC-3 prostate): > 100 µM | TGI (RXF 393 renal): > 100 µM | TGI (SF-295 CNS): > 100 µM | TGI (SR leukemia): > 100 µM | TGI (T-47D breast): > 100 µM | TGI (U251 CNS): > 100 µM | TGI (UACC-257 melanoma): > 100 µM | TGI (UACC-62 melanoma): > 100 µM

CC(C)CC(NC=O)C(=O)NC(Cc1ccccc1)NC(=O)CNC(=O)C(C)NC(=O)C(N)Cc1ccc(O)cc1 (centres undefined)
TGI (BT-549 breast): > 100 µM | TGI (DU-145 prostate): > 100 µM | TGI (HL-60(TB) leukemia): > 100 µM | TGI (HOP-92 NSCLC): > 100 µM | TGI (HS 578T breast): > 100 µM | TGI (HT29 colon): > 100 µM | TGI (MDA-MB-231 breast): > 100 µM | TGI (MDA-N): > 100 µM | TGI (MOLT-4 leukemia): > 100 µM | TGI (NCI-H23 lung): > 100 µM | TGI (PC-3 prostate): > 100 µM | TGI (RXF 393 renal): > 100 µM | TGI (SF-295 CNS): > 100 µM | TGI (SR leukemia): > 100 µM | TGI (T-47D breast): > 100 µM | TGI (U251 CNS): > 100 µM | TGI (UACC-62 melanoma): > 100 µM

O=C(Oc1c(Br)cc(Br)cc1C(=O)Oc1ccccc1)C(=O)Oc1c(Br)cc(Br)cc1C(=O)Oc1ccccc1
TGI (BT-549 breast): 52 µM | TGI (DU-145 prostate): > 100 µM | TGI (HL-60(TB) leukemia): > 100 µM | TGI (HOP-92 NSCLC): 38.4 µM | TGI (HS 578T breast): > 100 µM | TGI (HT29 colon): > 100 µM | TGI (MDA-MB-231 breast): 30.6 µM | TGI (MDA-N): 81.3 µM | TGI (MOLT-4 leukemia): 55.1 µM | TGI (NCI-H23 lung): 46.6 µM | TGI (PC-3 prostate): 69.6 µM | TGI (RXF 393 renal): 27.2 µM | TGI (SF-295 CNS): > 100 µM | TGI (SR leukemia): 56.1 µM | TGI (T-47D breast): 75 µM | TGI (U251 CNS): 40.6 µM | TGI (UACC-257 melanoma): > 100 µM | TGI (UACC-62 melanoma): > 100 µM

Cc1ccc(S(=O)(=O)ON2C(=O)c3c(N)c(C#N)c(-c4ccccc4)c(-c4ccccc4)c3C2=O)cc1
TGI (BT-549 breast): 34.8 µM | TGI (CCRF-CEM leukemia): 27 µM | TGI (DU-145 prostate): 67.1 µM | TGI (HL-60(TB) leukemia): 11.7 µM | TGI (HOP-92 NSCLC): 49.4 µM | TGI (HS 578T breast): > 100 µM | TGI (HT29 colon): 42.2 µM | TGI (MDA-MB-231 breast): 36.4 µM | TGI (MDA-N): 32.2 µM | TGI (MOLT-4 leukemia): 38.7 µM | TGI (PC-3 prostate): 32.7 µM | TGI (RXF 393 renal): 26.5 µM | TGI (SF-295 CNS): 92.8 µM | TGI (SR leukemia): 35.9 µM | TGI (T-47D breast): 38.1 µM | TGI (U251 CNS): 30.6 µM | TGI (UACC-257 melanoma): 38 µM | TGI (UACC-62 melanoma): 33.7 µM

From PubChem BioAssay (NCI)
